Here are results for 7 molecules from patent US7220744B2, “Monocyclic substituted phenyl methanones” (Hoffman-La Roche Inc., priority 2005, dated 2007).

The IC50 is the midpoint of a concentration-inhibition curve.

The target in the experiment is T1, mGlyT-1b (Mus musculus, UniProt P28571).
T1 construct: host or cells: Flp-in-CHO cells (vendor and catalogue number are those of the host cell line)
T1 sequence (P28571 1-651 isoform P28571-2): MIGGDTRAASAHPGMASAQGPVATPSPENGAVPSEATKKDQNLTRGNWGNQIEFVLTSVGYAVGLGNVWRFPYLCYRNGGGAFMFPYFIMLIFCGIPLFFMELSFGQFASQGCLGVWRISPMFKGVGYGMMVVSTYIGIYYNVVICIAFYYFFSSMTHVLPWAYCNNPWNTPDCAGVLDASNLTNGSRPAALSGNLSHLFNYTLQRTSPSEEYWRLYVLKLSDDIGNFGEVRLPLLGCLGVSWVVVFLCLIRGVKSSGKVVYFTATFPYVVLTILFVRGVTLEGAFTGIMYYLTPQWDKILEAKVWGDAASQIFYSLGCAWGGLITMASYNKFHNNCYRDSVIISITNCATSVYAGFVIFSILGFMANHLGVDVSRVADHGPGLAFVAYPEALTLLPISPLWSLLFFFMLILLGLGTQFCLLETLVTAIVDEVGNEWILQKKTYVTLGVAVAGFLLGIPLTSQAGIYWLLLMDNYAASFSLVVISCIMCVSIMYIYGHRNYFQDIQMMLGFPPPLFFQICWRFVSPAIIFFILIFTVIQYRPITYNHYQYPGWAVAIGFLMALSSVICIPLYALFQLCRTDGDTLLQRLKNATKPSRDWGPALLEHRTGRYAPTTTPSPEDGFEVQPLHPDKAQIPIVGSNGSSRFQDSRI
The experiment is described as follows: Glycine Uptake Inhibition Assay (mGlyT-1b). In kind it is cell-based. To be noted: inhibition of [3H]-glycine uptake in Flp-in-CHO cells transfected with mGlyT-1b cDNA; 20 min preincubation at 22° C.; read-out: IC50 (μM) at GlyT-1. The procedure: DMEM complete medium: Nutrient mixture F-12 (Gibco Life-technologies), fetal bovine serum (FBS) 5%, (Gibco life technologies), Penicillin/Streptomycin 1% (Gibco life technologies), Hygromycin 0.6 mg/ml (Gibco life technologies), Glutamine 1 mM Gibco life technologies)
Uptake buffer (UB): 150 mM NaCl, 10 mM Hepes-Tris, pH 7.4, 1 mM CaCl2, 2.5 mM KCl, 2.5 mM MgSO4, 10 mM (+) D-glucose.
Flp-in™-CHO (Invitrogen Cat n° R758-07) cells stably transfected with mGlyT1b cDNA.
Glycine Uptake Inhibition Assay (mGlyT-1b)
On day 1 mammalian cells, (Flp-in™-CHO), transfected with mGlyT-1b cDNA, were plated at the density of 40,000 cells/well in complete F-12 medium, without hygromycin in 96-well culture plates. On day 2, the medium was aspirated and the cells were washed twice with uptake buffer (UB). The cells were then incubated for 20 min at 22° C. with either (i) no potential competitor, (ii) 10 mM non-radioactive glycine, (iii) a concentration of a potential inhibitor. A range of concentrations of the potential inhibitor was used to generate data for calculating the concentration of inhibitor resulting in 50% of the effect (e.g. IC50, the concentration of the competitor inhibiting glycine uptake of 50%). A solution was then immediately added containing [^3H]-glycine 60 nM (11–16 Ci/mmol) and 25 μM non-radioactive glycine. The plates were incubated with gentle shaking and the reaction was stopped by aspiration of the mixture and washing (three times) with ice-cold UB. The cells were lysed with scintillation liquid, shaken 3 hours and the radioactivity in the cells was counted using a scintillation counter.
For the molecule `CCCCS(=O)(=O)c1cnc(N2CCN(C(=O)c3cc(S(C)(=O)=O)ccc3OCC(C)(C)C)CC2)s1` [Example 42, {4-[5-(Butane-1-sulfonyl)-thiazol-2-yl]-piperazin-1-yl}-[2-(2,2-dimethyl-propoxy)-5-methanesulfonyl-phenyl]-methanone], the concentration for half-maximal inhibition (IC50) was determined as 0.046 µM.

Take `Cc1nc(N2CCN(C(=O)c3cc(S(C)(=O)=O)ccc3OC(C)C)CC2)sc1C(F)(F)F` [Example 79, (2-Isopropoxy-5-methanesulfonyl-phenyl)-[4-(4-methyl-5-trifluoromethyl-thiazol-2-yl)-piperazin-1-yl]-methanone]: the half-inhibitory concentration (IC50) was found to be 0.067 µM.

Consider `CC(C)(C)COc1ccc(S(C)(=O)=O)cc1C(=O)N1CCN(c2ncc(S(=O)(=O)c3ccccc3)s2)CC1` [Example 29, [4-(5-Benzenesulfonyl-thiazol-2-yl)-piperazin-1-yl]-[2-(2,2-dimethyl-propoxy)-5-methanesulfonyl-phenyl]-methanone], for which the half-inhibitory concentration (IC50) was determined as 0.017 µM. The same measure for `C[C@@H](Oc1ccc(S(C)(=O)=O)cc1C(=O)N1CCN(c2ncc(C(F)(F)F)s2)CC1)C(F)(F)F` [Example 68, [5-Methanesulfonyl-2-((R)-2,2,2-trifluoro-1-methyl-ethoxy)-phenyl]-[4-(5-trifluoromethyl-thiazol-2-yl)-piperazin-1-yl]-methanone]: 0.082 µM; for `Cc1nc(N2CCN(C(=O)c3cc(S(C)(=O)=O)ccc3O[C@@H](C)C(F)(F)F)CC2)sc1C(F)(F)F` [Example 80, [5-Methanesulfonyl-2-((S)-2,2,2-trifluoro-1-methyl-ethoxy)-phenyl]-[4-(4-methyl-5-trifluoromethyl-thiazol-2-yl)-piperazin-1-yl]-methanone]: 0.046 µM. The same measure for `CC(C)COc1ccc(S(C)(=O)=O)cc1C(=O)N1CCN(c2ncc(C#N)s2)CC1` [Example 16, 2-[4-(2-Isobutoxy-5-methanesulfonyl-benzoyl)-piperazin-1-yl]-thiazole-5-carbonitrile]: 0.065 µM; for `C[C@H](Oc1ccc(S(C)(=O)=O)cc1C(=O)N1CCN(c2nnc(C(F)(F)F)s2)CC1)C(F)(F)F` [Example 93, [5-Methanesulfonyl-2-((S)-2,2,2-trifluoro-1-methyl-ethoxy)-phenyl]-[4-(5-trifluoromethyl-[1,3,4]thiadiazol-2-yl)-piperazin-1-yl]-methanone]: 0.075 µM.
